Measured values: patent US4162307A, “Method for anaesthesia by use of a pentapeptide” (priority 1977, dated 1979)
Where a name gives a salt, the structure may show the parent alone.

How the values were obtained:
[1] = test system: righting, pinnal and corneal reflexes; experiment: Anaesthesia in laboratory animals (abolition of reflexes), standard pharmacological procedures; type: in vivo, rats and mice
[2] = test system: citric acid aerosol-induced coughs; experiment: Antitussive testing, citric acid aerosol; type: in vivo, guinea-pigs
Method: J. Pharmacol, 39, (1970) 225.
(C) For antitussive testing, guinea-pigs are subjected to an aerosol containing 20% citric acid, 30 minutes after administration of compound (orally or subcutaneously). The number of coughs during a five minute exposure are counted and meaned for six animals per treatment. The method is that described by Boura, A. L. A., Green, A. F. and Saunders, I. A. Br. J. Pharmac., May 1970, Vol. 39, No. 1, page 225.
(§1) From the data obtained the respective ED50 figures were calculated (i.e. the dose required to elicit the appropriate effect in 50% of the animals). N.T.: not tested.

[3] = test system: castor oil-induced diarrhoea; experiment: Antidiarrhoeal activity in the rat (castor oil); type: in vivo
Method: (B) Antidiarrhoeal activity in the rat. In this procedure rats were straved for 24 hours, the peptide then administered either subcutaneously or orally followed after 15 minutes by 1 ml castor oil per rat given orally.
as §1

[4] = test system: isolated mouse vas deferens; experiment: Neurally evoked contractions of the isolated mouse vas deferens
mouse hot plate = experiment: Analgesia in mice in the hot plate test; type: in vivo
Method: (A) Analgesia in mice in the hot plate test (modification of the method of Eddy, N. B. et al., J. Pharm. Exp. Therap. (1953) 107, 385, the peptide being administered by intracerebroventricular injection).
as §1

[5] = test system: isolated guinea-pig ileum; experiment: Electrically-induced contractions of the isolated guinea-pig ileum; conditions: 0.1 Hz; 0.4 ms; 30-40 V
Description: (Each intestinal segment was impaled by the anode and suspended with a 2-3 g load. Stimulus parameters: frequency: 0.1 Hz; duration: 0.4 ms; voltage (supramaximal) 30-40 V; the contractions were transduced isotonically).

[6] = test system: righting, pinnal and corneal reflexes; experiment: Anaesthetic effects tested intravenously; type: in vivo, mice; conditions: loss of all three reflexes
Method: (D) Compounds are tested for anaesthetic effects following intracerebroventricular injection in mice. The animals are observed for loss of righting reflex (failure to roll over within 10 seconds of being turned on their backs), loss of pinnal reflex (failure to flick the ear in response to a light touch at the base of the pinna) and loss of corneal reflex (failure to blink when the cornea is touched lightly). Loss of all three reflexes constitutes anaesthesia. In addition, any other effects are noted. […] Interesting compounds are then tested intravenously in the same manner.
as §1

[7] = test system: righting, pinnal and corneal reflexes; experiment: Anaesthetic effects following intracerebroventricular injection in mice (loss of righting, pinnal and corneal reflexes); type: in vivo; conditions: mouse, loss of all three reflexes

CN1CC[C@]23c4c5ccc(O)c4O[C@H]2[C@@H](O)C=C[C@H]3[C@H]1C5 [morphine, reference compound]
Effect on the righting reflex, morphine by acute bolus injection ([1]; mice, acute bolus injection in up to lethal doses): does not abolish the righting reflex

CCNC(=O)[C@@H](CC(C)C)NC(=O)[C@H](Cc1ccccc1)NC(=O)CNC(=O)[C@@H](C)NC(=O)[C@@H](N)Cc1ccc(O)cc1 [peptide of formula (I), h.tyr.D-Ala.Gly.Phe.D-Leu.NHEt]
Reversal of reflex-abolishing effects by naloxone ([1]; effects (i), (ii) and (iii), naloxone administered): may be reversed by administration of the known narcotic antagonist naloxone
Effect on the corneal reflex ([1]; laboratory animals): Abolition of the corneal reflex
Effect on the pinnal reflex ([1]; laboratory animals): Abolition of the pinnal reflex
Effect on the righting reflex ([1]; laboratory animals): Abolition of the righting reflex
Induction and maintenance of anaesthesia ([1]; rats and mice, parenteral, e.g. intravenous or intracerebroventricular injection): both to induce and to maintain anaesthesia
Antitussive activity ([2]; guinea-pigs): exhibits antitussive activity
Antidiarrhoeal activity ([3]; rats, castor oil-induced diarrhoea): effective in reducing castor oil-induced diarrhoea
Naloxone sensitivity of vas deferens inhibition ([4]; naloxone): abolished by the known narcotic antagonist naloxone
Effect on neurally evoked contractions of isolated mouse vas deferens ([4]; pulses at 0.1 Hz): Inhibition of neurally evoked contractions
Naloxone sensitivity of analgesic activity (mouse hot plate; mice, hot plate, naloxone): abolished by naloxone
Analgesic activity, hot plate (mouse hot plate; mice, intracerebroventricular injection): exhibits analgesic activity
Effect on electrically-induced contractions of isolated guinea-pig ileum [5]: Reduction of electrically-induced contractions

CCNC(=O)[C@@H](CC(C)C)NC(=O)[C@H](Cc1ccccc1)NC(=O)CNC(=O)[C@@H](C)NC(=O)[C@@H](N)Cc1ccc(O)cc1 [H.Tyr.D-Ala.Gly.Phe.D-Leu.NHEt hydrochloride]
ED50 anaesthesia i.v. [6]: 20 mg/kg
ED50 antitussive ([2]; guinea-pig, 20% citric acid aerosol 30 minutes after administration, route not printed in table (orally or subcutaneously)): 2.0 mg/kg
ED50 anti-diarrhoea ([3]; rat, s.c., castor oil 1 ml orally 15 minutes after peptide): 10 mg/kg
ED50 anaesthesia i.c.v. [7]: 2.8 μg/mouse
ED50 mouse hot plate, analgesia (mouse hot plate; i.c.v., dose eliciting the effect in 50% of the animals): 0.03 μg/mouse
